Results on 22 compounds are retold here after US10633379B2, “Bromodomain inhibitors” (AbbVie Inc., priority 2016, dated 2020).

Experiment [1] concerns the target BRD4 (BDII_E352-M457) (Homo sapiens (Human), UniProt O60885). The experiment in a line: TR-FRET bromodomain binding assay, BRD4 BDII. The following applies: mean Ki, calculated from IC50, probe Kd and probe concentration. The method, boiled down: (§1)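 His-tagged BRD4 BDI (12 nM, with 100 nM Alexa647 BET-inhibitor probe) or BDII (4 nM, 30 nM probe), plus 1 nM Eu-anti-His antibody, in pH 6.0 phosphate buffer with 2% DMSO. Equilibrated 1 h at room temperature and read by TR-FRET. IC50 from a 4-parameter fit was converted to Ki using probe Kd and probe concentration.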

Experiment [2] deals with BRD4 (BDI_K57-E168) (Homo sapiens (Human), UniProt O60885). Briefly: TR-FRET bromodomain binding assay, BRD4 BDI. The following applies: mean Ki, calculated from IC50, probe Kd and probe concentration. A digest of the protocol:
as §1

For `Cc1cc(F)cc(C)c1Oc1ncc(C(C)(C)O)cc1-c1cn(C)c(=O)c2[nH]c(C(=O)NC3(C)CC3(F)F)cc12` (centres unmarked) [Example 61, N-(2,2-difluoro-1-methylcyclopropyl)-4-[2-(4-fluoro-2,6-dimethylphenoxy)-5-(2-hydroxypropan-2-yl)pyridin-3-yl]-6-methyl-7-oxo-6,7-dihydro-1H-pyrrolo[2,3-c]pyridine-2-carboxamide], the Ki (commonly a measure of affinity in units of concentration, obtained from inhibition or displacement) in experiment [1] is 12 nM; in experiment [2] it was 1580 nM.
On the same counts, the results for `CCNC(=O)c1cc2c(-c3cc(C(C)(C)O)cnc3Oc3c(C)cccc3C)cn(C)c(=O)c2[nH]1` [Example 1, 4-[2-(2,6-dimethylphenoxy)-5-(2-hydroxypropan-2-yl)pyridin-3-yl]-N-ethyl-6-methyl-7-oxo-6,7-dihydro-1H-pyrrolo[2,3-c]pyridine-2-carboxamide] are 2.3 nM and 462 nM.
Turning to `Cc1cc(S(C)(=O)=O)cc(C)c1Oc1ccc(C(C)(C)O)cc1-c1cn(C)c(=O)c2[nH]c(C(=O)NC(C)(C)C)cc12` [Example 90, N-tert-butyl-4-{5-(2-hydroxypropan-2-yl)-2-[4-(methanesulfonyl)-2,6-dimethylphenoxy]phenyl}-6-methyl-7-oxo-6,7-dihydro-1H-pyrrolo[2,3-c]pyridine-2-carboxamide], the Ki is 2 nM in experiment [1] and 158 nM in experiment [2].
As for `Cc1cc(C(C)(C)O)cc(C)c1Oc1ccc(C(C)(C)O)cc1-c1cn(C)c(=O)c2[nH]c(C(=O)NC(C)(C)C)cc12` [Example 108, N-tert-butyl-4-{5-(2-hydroxypropan-2-yl)-2-[4-(2-hydroxypropan-2-yl)-2,6-dimethylphenoxy]phenyl}-6-methyl-7-oxo-6,7-dihydro-1H-pyrrolo[2,3-c]pyridine-2-carboxamide], the values for the Ki in experiment [1] and in experiment [2] were 1.6 nM and 175 nM, respectively.
On the same counts, the results for `Cc1cccc(C)c1Oc1ncc(C(C)(C)O)cc1-c1cn(C)c(=O)c2[nH]c(C(=O)NC3(C)CC3(F)F)cc12` (centres unmarked) [Example 34, N-(2,2-difluoro-1-methylcyclopropyl)-4-[2-(2,6-dimethylphenoxy)-5-(2-hydroxypropan-2-yl)pyridin-3-yl]-6-methyl-7-oxo-6,7-dihydro-1H-pyrrolo[2,3-c]pyridine-2-carboxamide] are 5.1 nM and 729 nM.
The corresponding values for `CCNC(=O)c1cc2c(-c3cc(C(C)(C)O)ccc3Oc3c(C)cc(Cl)cc3C)cn(C)c(=O)c2[nH]1` [Example 84, 4-[2-(4-chloro-2,6-dimethylphenoxy)-5-(2-hydroxypropan-2-yl)phenyl]-N-ethyl-6-methyl-7-oxo-6,7-dihydro-1H-pyrrolo[2,3-c]pyridine-2-carboxamide] are 1.9 nM and 610 nM.
On the same counts, the results for `CCNC(=O)c1cc2c(-c3cc(C(C)(C)O)ccc3C3=CCC(F)(F)CC3)cn(C)c(=O)c2[nH]1` [Example 111, 4-[4′,4′-difluoro-4-(2-hydroxypropan-2-yl)[2′,3′,4′,5′-tetrahydro[1,1′-biphenyl]]-2-yl]-N-ethyl-6-methyl-7-oxo-6,7-dihydro-1H-pyrrolo[2,3-c]pyridine-2-carboxamide] are 1.4 nM and 150 nM.
With `Cc1cccc(C)c1Oc1ccc(C(C)(C)O)nc1-c1cn(C)c(=O)c2[nH]c(C(=O)NC(C)(C)C)cc12` [Example 76, N-tert-butyl-4-[3-(2,6-dimethylphenoxy)-6-(2-hydroxypropan-2-yl)pyridin-2-yl]-6-methyl-7-oxo-6,7-dihydro-1H-pyrrolo[2,3-c]pyridine-2-carboxamide], the results for the Ki in experiment [1] and in experiment [2] were 8.7 nM and 927 nM, respectively.
On the same counts, the results for `CCNC(=O)c1cc2c(-c3cc(C(C)(C)O)cnc3Oc3c(C)cc(Cl)cc3C)cn(C)c(=O)c2[nH]1` [Example 94, 4-[2-(4-chloro-2,6-dimethylphenoxy)-5-(2-hydroxypropan-2-yl)pyridin-3-yl]-N-ethyl-6-methyl-7-oxo-6,7-dihydro-1H-pyrrolo[2,3-c]pyridine-2-carboxamide] are 3.7 nM and 236 nM.
`Cc1cccc(C(F)(F)F)c1Oc1ccc(C(C)(C)O)cc1-c1cn(C)c(=O)c2[nH]c(C(=O)NC(C)(C)C)cc12` [Example 54, N-tert-butyl-4-{5-(2-hydroxypropan-2-yl)-2-[2-methyl-6-(trifluoromethyl)phenoxy]phenyl}-6-methyl-7-oxo-6,7-dihydro-1H-pyrrolo[2,3-c]pyridine-2-carboxamide]: the Ki is 6 nM in experiment [1] and 4520 nM in experiment [2].
As for `Cc1cc(Cl)cc(C)c1Oc1ncc(C(C)(C)O)cc1-c1cn(C)c(=O)c2[nH]c(C(=O)NC(C)(C)C)cc12` [Example 95, N-tert-butyl-4-[2-(4-chloro-2,6-dimethylphenoxy)-5-(2-hydroxypropan-2-yl)pyridin-3-yl]-6-methyl-7-oxo-6,7-dihydro-1H-pyrrolo[2,3-c]pyridine-2-carboxamide], the inhibitory constant (Ki) was 4.8 nM in experiment [1] and 333 nM in experiment [2].
Regarding `CCNC(=O)c1cc2c(-c3cc(C(C)(C)O)ccc3Oc3c(C)cccc3C(F)F)cn(C)c(=O)c2[nH]1` [Example 70, 4-{2-[2-(difluoromethyl)-6-methylphenoxy]-5-(2-hydroxypropan-2-yl)phenyl}-N-ethyl-6-methyl-7-oxo-6,7-dihydro-1H-pyrrolo[2,3-c]pyridine-2-carboxamide], the Ki in experiment [1] is 3.7 nM; in experiment [2], 1340 nM.
Turning to `Cc1cccc(C(F)(F)F)c1Oc1ncc(C(C)(C)O)cc1-c1cn(C)c(=O)c2[nH]c(C(=O)NC(C)(C)C(F)(F)F)cc12` [Example 46, 4-{5-(2-hydroxypropan-2-yl)-2-[2-methyl-6-(trifluoromethyl)phenoxy]pyridin-3-yl}-6-methyl-7-oxo-N-(1,1,1-trifluoro-2-methylpropan-2-yl)-6,7-dihydro-1H-pyrrolo[2,3-c]pyridine-2-carboxamide], the Ki in experiment [1] was 19.5 nM; in experiment [2], 2520 nM.
On the same counts, the results for `Cn1cc(-c2cc(C(C)(C)O)ccc2-c2ccc(F)cc2F)c2cc(C(=O)NC(C)(C)C)[nH]c2c1=O` [Example 33, N-tert-butyl-4-[2′,4′-difluoro-4-(2-hydroxypropan-2-yl)[1,1′-biphenyl]-2-yl]-6-methyl-7-oxo-6,7-dihydro-1H-pyrrolo[2,3-c]pyridine-2-carboxamide] are 6.4 nM and 921 nM.
On the same counts, the results for `CCNC(=O)c1cc2c(-c3cc(S(C)(=O)=O)ccc3Oc3ccc(F)cc3F)cn(C)c(=O)c2[nH]1` [Compound Y, 4-[2-(2,4-difluorophenoxy)-5-(methylsulfonyl)phenyl]-N-ethyl-6-methyl-7-oxo-6,7-dihydro-1H-pyrrolo[2,3-c]pyridine-2-carboxamide, reference compound] are 1.32 nM and 21.6 nM.
On the same counts, the results for `Cc1cc(F)cc(Cl)c1Oc1ncc(C(C)(C)O)cc1-c1cn(C)c(=O)c2[nH]c(C(=O)NC(C)(C)C)cc12` [Example 51, N-tert-butyl-4-[2-(2-chloro-4-fluoro-6-methylphenoxy)-5-(2-hydroxypropan-2-yl)pyridin-3-yl]-6-methyl-7-oxo-6,7-dihydro-1H-pyrrolo[2,3-c]pyridine-2-carboxamide] are 4.9 nM and 263 nM.
Regarding `Cc1cc(F)cc(Cl)c1Oc1ccc(C(C)(C)O)cc1-c1cn(C)c(=O)c2[nH]c(C(=O)NC(C)(C)C(F)(F)F)cc12` [Example 57, 4-[2-(2-chloro-4-fluoro-6-methylphenoxy)-5-(2-hydroxypropan-2-yl)phenyl]-6-methyl-7-oxo-N-(1,1,1-trifluoro-2-methylpropan-2-yl)-6,7-dihydro-1H-pyrrolo[2,3-c]pyridine-2-carboxamide], the results for the inhibitory constant (Ki) in experiment [1] and in experiment [2] were 17.5 nM and 2890 nM, respectively.
On the same counts, the results for `CCNC(=O)c1cc2c(-c3cc(C4(O)COC4)ccc3Oc3c(C)cc(F)cc3C)cn(C)c(=O)c2[nH]1` [Example 123, N-ethyl-4-[2-(4-fluoro-2,6-dimethylphenoxy)-5-(3-hydroxyoxetan-3-yl)phenyl]-6-methyl-7-oxo-6,7-dihydro-1H-pyrrolo[2,3-c]pyridine-2-carboxamide] are 1 nM and 168 nM.
On to `CCNC(=O)c1cc2c(-c3cc(C(O)(C(F)(F)F)C(F)(F)F)cnc3Oc3c(C)cc(F)cc3C)cn(C)c(=O)c2[nH]1` [Example 80, N-ethyl-4-[2-(4-fluoro-2,6-dimethylphenoxy)-5-(1,1,1,3,3,3-hexafluoro-2-hydroxypropan-2-yl)pyridin-3-yl]-6-methyl-7-oxo-6,7-dihydro-1H-pyrrolo[2,3-c]pyridine-2-carboxamide], for which the Ki in experiment [1] is 5.2 nM; in experiment [2] it was 486 nM.
`Cc1cc(F)cc(C)c1Oc1ccc(C(C)(C)O)cc1-c1cn(C)c(=O)c2[nH]c(C(N)=O)cc12` [Example 112, 4-[2-(4-fluoro-2,6-dimethylphenoxy)-5-(2-hydroxypropan-2-yl)phenyl]-6-methyl-7-oxo-6,7-dihydro-1H-pyrrolo[2,3-c]pyridine-2-carboxamide]: the Ki in experiment [1] is 2.3 nM; in experiment [2], 332 nM.
Take `CCNC(=O)c1cc2c(-c3cc(C(O)(C4CC4)C4CC4)cnc3Oc3c(C)cccc3C)cn(C)c(=O)c2[nH]1` [Example 25, 4-{5-[dicyclopropyl(hydroxy)methyl]-2-(2,6-dimethylphenoxy)pyridin-3-yl}-N-ethyl-6-methyl-7-oxo-6,7-dihydro-1H-pyrrolo[2,3-c]pyridine-2-carboxamide]: the Ki is 3 nM in experiment [1] and 171 nM in experiment [2].
The corresponding values for `CCNC(=O)c1cc2c(-c3cc(C(C)(C)O)c(F)cc3Oc3c(C)cc(F)cc3C)cn(C)c(=O)c2[nH]1` [Example 65, N-ethyl-4-[4-fluoro-2-(4-fluoro-2,6-dimethylphenoxy)-5-(2-hydroxypropan-2-yl)phenyl]-6-methyl-7-oxo-6,7-dihydro-1H-pyrrolo[2,3-c]pyridine-2-carboxamide] are 1.3 nM and 222 nM.
